Experimental data from patent publication US20130035281A1, “PHARMACEUTICAL COMPOSITION, METHODS FOR TREATING AND USES THEREOF” (BOEHRINGER INGELHEIM INTERNATIONAL GMBH, priority 2011, published 2013).

Tests used:
[1] = metformin on its own, in the diabetic; cited from earlier work
[2] = test system: Zucker diabetic fatty (ZDF) rats; experiment: Oral glucose tolerance test in ZDF rats; type: in vivo; conditions: overnight fasted 12-weeks old male ZDF rats; single dose; Cpd. A 3 mg/kg oral, exendin-4 0.01 mg/kg subcutaneous; oral glucose 2 g/kg; blood glucose up to 120 min
Procedure: An oral glucose tolerance test was performed in overnight fasted 12-weeks old male Zucker diabetic fatty (ZDF) rats (ZDF/CRL-Lepr^fa). A pre-dose blood sample was obtained by tail bleed. Blood glucose was measured with a glucometer, and the animals were randomized for blood glucose (n=5/group). Subsequently, the groups received a single oral administration of either vehicle alone (0.5% aqueous hydroxyethylcellulose) or this vehicle containing the glucopyranosyl-substituted benzene derivative. […] The animals were orally dosed with glucose (2 g/kg) 30 min after the subcutaneous injection. Blood glucose was measured in tail blood 15 min, 30 min, 60 min, 90 min, and 120 min thereafter. Glucose excursion was quantified by calculating the reactive glucose AUC. The data are presented as mean±S.E.M. The two-sided unpaired Student's t-test was used for statistical comparison of the groups. A p value<0.05 was considered to show a statistically significant difference.

CN(C)C(=N)N=C(N)N [metformin]
average improvement in the HbA1c value [1]: 1.0-1.5%

OC[C@H]1O[C@@H](c2ccc(Cl)c(Cc3ccc(O[C@H]4CCOC4)cc3)c2)[C@H](O)[C@@H](O)[C@@H]1O [Cpd. A]
reduction of glucose excursion (reactive glucose AUC) [2]: 57%
